Patent US20060100243A1 (priority 2004, published 2006)
“Also recorded” adds a separate entry of the source. Read-outs that look alike come from different tables or passages of the source.

How the values were obtained:
[1] = target: T1, recombinant human dopamine transporter (Homo sapiens, UniProt Q01959); test: [125I]RTI-55 binding, dopamine transporter in HEK 293 cells; settings: for Ki: DOPAMINE [I125]-RTI-55 BINDING (Ki), HEK 293 cells; for potency at binding to the dopamine transporter and blocking dopamine reuptake: in words, compared with MPH / other samples
T1 construct: expressed in transfected cells
T1 sequence (Q01959 whole entry): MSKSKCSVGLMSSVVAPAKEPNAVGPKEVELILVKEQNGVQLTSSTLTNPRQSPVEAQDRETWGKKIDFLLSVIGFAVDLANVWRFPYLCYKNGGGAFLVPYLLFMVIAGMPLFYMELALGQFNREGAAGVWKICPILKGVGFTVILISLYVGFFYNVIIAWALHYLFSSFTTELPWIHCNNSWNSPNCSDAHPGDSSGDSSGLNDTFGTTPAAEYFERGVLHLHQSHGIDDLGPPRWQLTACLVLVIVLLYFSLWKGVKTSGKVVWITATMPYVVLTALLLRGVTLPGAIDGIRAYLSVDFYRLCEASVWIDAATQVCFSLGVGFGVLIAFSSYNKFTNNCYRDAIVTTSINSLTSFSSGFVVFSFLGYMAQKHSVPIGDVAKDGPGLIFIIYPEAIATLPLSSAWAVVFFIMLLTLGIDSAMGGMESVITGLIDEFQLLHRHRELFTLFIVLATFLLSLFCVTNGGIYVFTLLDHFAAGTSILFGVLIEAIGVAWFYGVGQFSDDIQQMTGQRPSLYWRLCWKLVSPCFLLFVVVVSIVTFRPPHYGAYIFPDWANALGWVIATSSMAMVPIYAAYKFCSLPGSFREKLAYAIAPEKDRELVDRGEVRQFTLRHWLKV

[2] = target: T1, recombinant human dopamine transporter; test: dopamine reuptake inhibition in HEK 293 cells; assay type: cell-based; settings: for IC50: DOPAMINE DA REUPTAKE (IC50), HEK 293 cells; for NE/DA REUPTAKE: ratio of NE/DA reuptake IC50, selectivity for dopamine over norepinephrine transporter
[3] = target: T2, recombinant human serotonin transporter (Homo sapiens, UniProt P31645); test: biochemical; assay type: binding
T2 construct: expressed in transfected cells
T2 sequence (P31645 whole entry): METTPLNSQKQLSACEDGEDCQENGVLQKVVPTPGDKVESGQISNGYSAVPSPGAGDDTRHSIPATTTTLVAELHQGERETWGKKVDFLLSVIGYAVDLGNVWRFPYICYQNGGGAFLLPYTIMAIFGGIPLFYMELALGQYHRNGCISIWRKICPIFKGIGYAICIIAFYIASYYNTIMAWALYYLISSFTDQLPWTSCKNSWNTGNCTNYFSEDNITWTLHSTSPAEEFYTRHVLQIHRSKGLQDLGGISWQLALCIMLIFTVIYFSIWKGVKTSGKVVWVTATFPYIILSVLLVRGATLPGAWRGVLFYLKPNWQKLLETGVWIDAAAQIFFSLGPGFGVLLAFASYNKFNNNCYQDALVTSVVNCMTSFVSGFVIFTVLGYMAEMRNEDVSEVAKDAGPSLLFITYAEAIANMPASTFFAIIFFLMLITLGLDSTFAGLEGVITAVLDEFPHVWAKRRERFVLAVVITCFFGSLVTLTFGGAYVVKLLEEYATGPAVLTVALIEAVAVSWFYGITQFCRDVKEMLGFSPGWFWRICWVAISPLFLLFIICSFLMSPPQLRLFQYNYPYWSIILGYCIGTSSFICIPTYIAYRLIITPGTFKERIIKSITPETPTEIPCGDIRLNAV

[4] = target: T3, recombinant human norepinephrine transporter (Homo sapiens, UniProt P23975); test: biochemical; assay type: binding
T3 construct: expressed in transfected cells
T3 sequence (P23975 whole entry): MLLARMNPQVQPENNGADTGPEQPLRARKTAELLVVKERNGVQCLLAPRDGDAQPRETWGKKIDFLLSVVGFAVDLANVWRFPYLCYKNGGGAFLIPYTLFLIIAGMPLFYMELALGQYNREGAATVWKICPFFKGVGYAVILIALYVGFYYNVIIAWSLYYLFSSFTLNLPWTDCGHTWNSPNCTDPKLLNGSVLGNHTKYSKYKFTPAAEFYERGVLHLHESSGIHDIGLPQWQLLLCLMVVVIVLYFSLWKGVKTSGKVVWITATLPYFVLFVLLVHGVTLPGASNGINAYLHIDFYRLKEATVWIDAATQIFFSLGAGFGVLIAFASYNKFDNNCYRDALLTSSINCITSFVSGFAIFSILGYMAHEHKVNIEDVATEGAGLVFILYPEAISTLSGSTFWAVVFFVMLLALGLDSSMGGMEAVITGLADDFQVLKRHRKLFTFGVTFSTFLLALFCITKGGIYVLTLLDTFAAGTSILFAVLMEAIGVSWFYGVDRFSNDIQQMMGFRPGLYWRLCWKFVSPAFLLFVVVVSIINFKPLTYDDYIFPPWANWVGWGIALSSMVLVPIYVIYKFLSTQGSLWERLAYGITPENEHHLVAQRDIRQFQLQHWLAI

[5] = target: T2, recombinant human serotonin transporter; test: serotonin (5HT) reuptake inhibition in HEK 293 cells; assay type: cell-based; settings: SEROTONIN 5HT REUPTAKE (IC50), HEK 293 cells
[6] = target: T3, recombinant human norepinephrine transporter; test: cell-based
[7] = SEROTONIN [I125]-RTI-55 BINDING (Ki)
[8] = NOREPINEPHRINE [I125]-RTI-55 BINDING (Ki)
[9] = RS/SR racemates table, HEK 293 cells, read-out: NOREPINEPHRINE NE REUPTAKE (IC50)
[10] = RR/SS racemates table, HEK 293 cells, read-out: NOREPINEPHRINE NE REUPTAKE (IC50)
[11] = RS/SR racemates table, HEK 293 cells, read-out: SEROTONIN [I125]-RTI-55 BINDING (Ki)
[12] = RR/SS racemates table, HEK 293 cells, read-out: SEROTONIN [I125]-RTI-55 BINDING (Ki)
[13] = RS/SR racemates table, HEK 293 cells, read-out: NOREPINEPHRINE [I125]-RTI-55 BINDING (Ki)

CC(C)C(c1ccc(Cl)cc1)C1CCCCN1 (single isomer, unassigned) [CC]
Ki ([1]; RS/SR racemates table): 900 ± 320 nM | IC50 ([2]; RS/SR racemates table): 990 ± 280 nM | Ki [3, 7]: > 10000 nM | Ki [4, 8]: > 10000 nM

CC(C)C(c1ccc(Cl)cc1)C1CCCCN1 (single isomer, unassigned) [C]
Ki ([1]; RR/SS racemates table): 46 ± 16 nM | IC50 ([2]; RR/SS racemates table): 32 ± 6 nM | NE/DA REUPTAKE [2]: 1.6 | Ki [3, 7]: 5300 ± 1300 nM | IC50 ([5]; RR/SS racemates table): 3300 ± 400 nM | Ki [4, 8]: 810 ± 170 nM | IC50 ([6]; NORE[…] REUPTAKE (IC50)): 51 ± 20 nM

CCCCC(c1ccc(Cl)cc1)C1CCCCN1 (single isomer, unassigned) [GG]
Ki ([1]; RS/SR racemates table): 290 ± 70 nM | IC50 ([2]; RS/SR racemates table): 170 ± 40 nM | Ki ([4]; NOREPINEPHRINE [I125]-RTI-55 BINDING (Ki), RS/SR racemates table, HEK 293 cells): 1600 ± 300 nM | IC50 [6, 9]: 180 ± 160 nM

CCCCC(c1ccc(Cl)cc1)C1CCCCN1 (single isomer, unassigned) [G]
Ki ([1]; RR/SS racemates table): 7.8 ± 1.1 nM | potency at binding to the dopamine transporter and blocking dopamine reuptake [1]: enhanced potency; also recorded: most potent | IC50 ([2]; RR/SS racemates table): 8.2 ± 2.1 nM | Ki ([4]; NOREPINEPHRINE [I125]-RTI-55 BINDING (Ki), RR/SS racemates table, HEK 293 cells): 230 ± 30 nM | IC50 [6, 10]: 26 ± 7 nM

Clc1ccc(C(CC2CCCCC2)C2CCCCN2)cc1 (single isomer, unassigned) [HH]
Ki ([1]; RS/SR racemates table): 260 ± 30 nM | IC50 ([2]; RS/SR racemates table): 410 ± 60 nM | Ki [3, 11]: 3700 ± 500 nM | IC50 ([5]; RS/SR racemates table): 6400 ± 1300 nM | Ki [4, 8]: 4300 ± 200 nM | IC50 ([6]; NORE[…] REUPTAKE (IC50)): 1700 ± 600 nM

Clc1ccc(C(CC2CCCCC2)C2CCCCN2)cc1 (single isomer, unassigned) [H]
Ki ([1]; RR/SS racemates table): 130 ± 40 nM | IC50 ([2]; RR/SS racemates table): 230 ± 70 nM | NE/DA REUPTAKE [2]: 4.1 | Ki [3, 12]: 900 ± 400 nM | IC50 ([5]; RR/SS racemates table): 1000 ± 200 nM | Ki [4, 8]: 4200 ± 200 nM | IC50 ([6]; NORE[…] REUPTAKE (IC50)): 940 ± 140 nM

Clc1ccc(C(CCc2ccccc2)C2CCCCN2)cc1 (single isomer, unassigned) [II]
Ki ([1]; RS/SR racemates table): 700 ± 90 nM | IC50 ([2]; RS/SR racemates table): 420 ± 140 nM | Ki [3, 7]: 1840 ± 70 nM | IC50 ([5]; RS/SR racemates table): 2100 ± 900 nM | Ki [4, 8]: 2400 ± 700 nM | IC50 ([6]; NORE[…] REUPTAKE (IC50)): 610 ± 150 nM

Clc1ccc(C(CCc2ccccc2)C2CCCCN2)cc1 (single isomer, unassigned) [I]
Ki ([1]; RR/SS racemates table): 24 ± 9 nM | IC50 ([2]; RR/SS racemates table): 160 ± 20 nM | NE/DA REUPTAKE [2]: 4.3 | Ki [3, 7]: 640 ± 60 nM | IC50 ([5]; RR/SS racemates table): 650 ± 219 nM | Ki [4, 8]: 1800 ± 600 nM | IC50 ([6]; NORE[…] REUPTAKE (IC50)): 680 ± 240 nM

Clc1ccc(C(Cc2ccccc2)C2CCCCN2)cc1 (single isomer, unassigned) [JJ]
Ki ([1]; RS/SR racemates table): 550 ± 60 nM | IC50 ([2]; RS/SR racemates table): 390 ± 60 nM | Ki [3, 7]: 4300 ± 800 nM | IC50 ([5]; RS/SR racemates table): 4700 ± 500 nM | Ki [4, 8]: 4000 ± 800 nM | IC50 ([6]; NORE[…] REUPTAKE (IC50)): > 800 nM

Clc1ccc(C(Cc2ccccc2)C2CCCCN2)cc1 (single isomer, unassigned) [J]
Ki ([1]; RR/SS racemates table): 440 ± 110 nM | IC50 ([2]; RR/SS racemates table): 370 ± 90 nM | selectivity for the dopamine transporter over the norepinephrine transporter ([2]; in words, from binding and reuptake values): enhanced selectivity | NE/DA REUPTAKE [2]: 7.8 | Ki [3, 7]: 1100 ± 200 nM | IC50 ([5]; RR/SS racemates table): 1100 ± 200 nM | Ki [4, 8]: 2900 ± 800 nM | IC50 ([6]; NORE[…] REUPTAKE (IC50)): 2900 ± 600 nM

Clc1ccc(C(C2CCCC2)C2CCCCN2)cc1 (single isomer, unassigned) [KK]
Ki ([1]; RS/SR racemates table): 690 ± 140 nM | IC50 ([2]; RS/SR racemates table): 240 ± 30 nM | Ki [3, 11]: 4600 ± 700 nM | IC50 ([5]; RS/SR racemates table): 4200 ± 900 nM

Clc1ccc(C(C2CCCC2)C2CCCCN2)cc1 (single isomer, unassigned) [K]
Ki ([1]; RR/SS racemates table): 36 ± 10 nM | IC50 ([2]; RR/SS racemates table): 27 ± 8.3 nM | Ki [3, 12]: 5700 ± 1100 nM | IC50 ([5]; RR/SS racemates table): 4600 ± 800 nM

COC(=O)C(c1ccc(Cl)c(Cl)c1)C1CCCCN1 (single isomer, unassigned) [MM]
Ki ([1]; RS/SR racemates table): 90 ± 14 nM | IC50 ([2]; RS/SR racemates table): 800 ± 110 nM | Ki [3, 11]: 2500 ± 420 nM | IC50 ([5]; RS/SR racemates table): 1100 ± 90 nM | Ki [4, 13]: 4200 ± 1900 nM | IC50 [6, 9]: 190 ± 50 nM

COC(=O)C(c1ccc(Cl)c(Cl)c1)C1CCCCN1 (single isomer, unassigned) [M]
Ki ([1]; RR/SS racemates table): 1.4 ± 0.1 nM | IC50 ([2]; RR/SS racemates table): 23 ± 3 nM | NE/DA REUPTAKE [2]: 0.43 | Ki [3, 12]: 1600 ± 150 nM | IC50 ([5]; RR/SS racemates table): 540 ± 110 nM | Ki ([4]; RR/SS racemates table, HEK 293 cells, read-out: NOREPINEPHRINE [I125]-RTI-55 BINDING (Ki)): 14 ± 6 nM | IC50 [6, 10]: 10 ± 1 nM

CC(C)CC(c1ccc(Cl)c(Cl)c1)C1CCCCN1C (single isomer, unassigned) [OO]
Ki ([1]; RS/SR racemates table): 44 ± 12 nM | potency at binding to the dopamine transporter and blocking dopamine reuptake [1]: considerably more potent; also recorded: most potent | IC50 ([2]; RS/SR racemates table): 45 ± 4 nM | Ki [3, 11]: 1500 ± 300 nM | IC50 ([5]; RS/SR racemates table): 2400 ± 700 nM | Ki [4, 13]: 660 ± 130 nM | IC50 [6, 9]: 100 ± 19 nM
